Results taken from US8410094B2, “Amide compounds, their pharmaceutical compositions, their preparation method and their uses” (Shanghai Institute of Materia Medica, Chinese Academy of …, priority 2008, dated 2013).
Where two headings read alike, the source gives them in different places. One block for each compound: values may come before it.

Tests used:
[1] = test system: HIV-1 NL(AD8) virus; assay: H4DA5 cell model of virus replication (β-galactosidase reporter); assay type: cell-based; details: for IC50: read-out: IC50 (nM) H4DA5 cell model; for inhibitory activity EC50 level in H4DA5 cell model: stated in words
Protocol: 2. Results of Activity Assay at Cellular Level • 2.1 H4DA5 Cell Model (The Operation was Performed Under P3 Experimental Conditions) • (1) H4DA5 cells: Hela cells expressing human CD4, CCR5 receptor and reporting gene Ltr-lacZ; • (2) Appropriate amounts of H4DA5 cells were plated in 96-well plate and cultured overnight; • (3) The compound to be tested and HIV-1 NL(AD8) virus were added; • (4) Incubation for 3 days (in cell incubator at 37° C.); • (5) Virus replication was determined using β-galactosidase test kit.

[2] = molecular target: T1, CCR5 (Homo sapiens, UniProt P51681); assay: Inhibition of CCR5: [35S]GTPγS binding assays (filtration, SPA-WGA) and calcium influx assay, 10 nM RANTES, CHO-CCR5; assay type: biochemical; details: for IC50: inhibition of GTPγS binding induced by 10 nM RANTES, CHO-CCR5; for inhibition against CCR5 (class symbol in IC50 column): class by inhibition at 30 nM or 300 nM
T1 construct: expressed in transfected cells
Protocol: CCR5 belongs to G-Protein-Coupled Receptor (GPCR) family. The developing technology of GPCR-based drugs have been well-developed, among them, the experimental techniques such as ligand-receptor binding assay, GTPγS binding assay and Ca^2+ flux assay have been widely used in drug-screening related to chemokine receptors. The inhibitory activities of the compounds according to the present invention against CCR5 are measured by three methods, i.e., [^35S]GTPγS filter binding assay, SPA-WGA-based [^35S]GTPγS binding assay and calcium influx assay. At the same time, the antiviral activities in cell of the compounds according to the present invention are evaluated by using two kinds HIV-1 subtypes: H4DA5 cell model and PBMC system virus replication model.
A. [^35S]GTPγS Binding Assay
After binding with an agonist, CCR5 experiences a conformation change such that CCR5 interacts with G protein so as to active the G protein. G protein is a tripolymer composed of α-subunit and βγ-subunit. Since the ability of α-subunit binding to GTP depends on the interaction of CCR5 with the agonist, the ability of an agonist for activating CCR5 can be reflected by determining the amount of GTP binding to α-subunit. In a GTPγS binding assay, a ^35S-labeled GTP analogue GTPγS, which can bind with an activated α-subunit without being hydrolyzed, is used to replace GTP in order for eliminating the defect that the amount of GTP binding to G protein can not exactly reflect the activation of CCR5 due to the hydrolysis of GTO by GTPase and for convenience of detection. So, α-subunit binds with GDP when CCR5 is not activated, and after the activation of CCR5, α-subunit binds with GTPγS such that GTPγS irreversible binds to α-subunit. Therefore, the amount of [^35S]-GTPγS binding to α-subunit could reflect the level of CCR5 activated by an agonist. The ability of the agonist for activating CCR5 will decrease when an antagonist is added.
Such experiment has been referred to as GTPγS filtration assay in which [^35S]-GTPγS bound with the free G protein could be separated by membrane filtration.
Alternatively, SPA (Scintillation Proximity Assay) technique can be used to detect the [^35S]-GTPγS bound to G protein, which is called SPA-WGA-based [35S]GTPγS binding assay. The principle of SPA technique is as follows. Sub-atomic particles released during the decay of radioactive atoms, for example β-ray (electron), can excite microspheres at a sufficiently close distance to emit light so as to be detected by a Scintillation Counter. In an aqueous solution, most of the energy of these rays is absorbed by the solvent, and the traveling distance of these rays is limited.
The activation of G protein by CCR5 is determined by the following experiments.
CHO (Chinese hamster ovary cell) permanent cell line expressing CCR5 (CHO-CCR5) (a cell line constructed by Shanghai Targetdrug Ltd.) was lysed with a lysis buffer (5 mM Tris-HCl, pH 7.5, 5 mM EDTA and 5 mM EGTA) and then centrifugated at 15,000×g for 10 min to obtain cell membrane. After the cell membrane was resuspended in a reaction buffer (5 mM Tris-HCl, pH 7.5, 5 mM MgCl2, 1 mM EGTA, 100 mM NaCl), the protein concentration was determined using Bioford Protein Assay Kit manufactured by Bio-Rad Laboratories Inc. Subsequently, GTPγS binding assay was performed in the reaction buffer, wherein the reaction system was 100 μL containing 10 μg membrane protein, 40 μM GDP and 0.5 nM [^35S]-GTPγS (1200 Ci/mmol). After the compound to be tested (the compound was first dissolved in DMSO and then diluted in gradient with the reaction buffer according to the specific situation, wherein the final concentration of DMSO was 1% (v/v) in the whole reaction system) was added and shaken to mix homogeneously, the reaction tube was incubated at 30° C. for 1 hour. After the reaction finished, the tube was placed on ice, and the reaction mixture was diluted with PBS to quench the reaction and filtered under reduced pressure with a GF/C filter membrane. […]

[3] = test system: HIV-1 Ba-L virus; assay: PBMC system of virus replication model (p24 antigen); assay type: cell-based; details: for IC50: read-out: IC50 (nM) PBMC system of virus replication model
Protocol: 2.2 PBMC System of Virus Replication Model (The Operation was Performed Under P3 Experimental Conditions) • (1) PBMC cells were separated from the blood from two people (using Ficoll gradient separation method); • (2) the PBMC cells were stimulated using PHA and incubated for 3 days in a cell incubator at 37° C. at a density of 2×10^6 cells/ml. • (3) PBMC cells were resuspended in a RF-10 medium (RF-10/IL2) containing 100 U/mL IL-2 (30 uL RF-10/IL2 medium containing 4 times of the final concentration of the compound to be tested and 40 uL RF-10/IL2 medium containing HIV-1 Ba-L virus (1400 pfu/well) were added in the plate (200,000 cells/50 uL/well). • (4) After incubated 24 hours, RF-10/IL2 medium containing 1 time of the final concentration of the compound to be test was added in each well. After infected for 4 days, 100 ul fresh RF-10/IL2 medium containing the compound to be tested at the final concentration to replace the original medium. After incubated for 2 days, the supernatant of each well was collected, and the content of p24 was determined. • (5) The content of P24 antigen in the supernatant of each well was measured by Vironostik p24 test kit to detect the virus replication.

[4] = Human immunodeficiency virus 1, 72 h

T1 sequence (P51681 whole entry): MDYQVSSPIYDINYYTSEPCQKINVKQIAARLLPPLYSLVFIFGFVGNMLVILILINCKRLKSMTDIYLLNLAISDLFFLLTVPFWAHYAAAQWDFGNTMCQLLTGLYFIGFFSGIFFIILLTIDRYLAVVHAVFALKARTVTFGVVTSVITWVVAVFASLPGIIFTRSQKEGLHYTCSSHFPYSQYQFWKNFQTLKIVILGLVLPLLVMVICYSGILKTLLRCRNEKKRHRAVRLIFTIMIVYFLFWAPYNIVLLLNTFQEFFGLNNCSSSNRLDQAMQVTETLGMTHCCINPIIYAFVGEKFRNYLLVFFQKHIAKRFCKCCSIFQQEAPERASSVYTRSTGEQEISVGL

Compound: CC(=O)N1CCC(C(=O)N(CCCN2[C@@H]3CC[C@H]2C[C@H](NC(=O)OCc2ccccc2)C3)c2ccc(C)c(Cl)c2)CC1 [Compound 8, 1-acetyl-N-(3-chloro-4-methylphenyl)-N-(3-(3-exo-benzyloxymethanamido-8-azabicyclo[3.2.1]oct-8-yl)propyl)-4-piperidinylcarboxamide]
IC50 [1, 4]: 220 nM
inhibitory activity EC50 level in H4DA5 cell model [1]: 100 nM level
IC50 [2]: 18.3 nM

Compound: CC(=O)N1CCC(C(=O)N(CCCN2[C@@H]3CC[C@H]2C[C@H](NS(=O)(=O)c2ccc(C)cc2)C3)c2ccc(C)c(Cl)c2)CC1 [Compound 9b, 1-acetyl-N-(3-chloro-4-methylphenyl)-N-(3-(3-exo-p-tolylsulfonamido-8-azabicyclo[3.2.1]oct-8-yl)propyl)-4-piperidinylcarboxamide]
IC50 ([3]; Human immunodeficiency virus 1, BAL, PBMC): 0.42 nM
inhibitory activity EC50 level in PBMC system of virus replication model ([3]; stated in words): nM level
IC50 [1, 4]: 1 nM
inhibitory activity EC50 level in H4DA5 cell model [1]: nM level
IC50 [2]: 6 nM

IC50 [2]: 2.06 nM
Compound: Cc1ccc(S(=O)(=O)N[C@@H]2C[C@H]3CC[C@@H](C2)N3CCCN(C(=O)C2CCN(S(C)(=O)=O)CC2)c2ccc(C)c(Cl)c2)cc1 [Compound 15b, N-(3-chloro-4-methylphenyl)-N-(3-(3-exo-(4-tolylsulfonamido)-8-azabicyclo[3.2.1]oct-8-yl)propyl)-1-(methylsulfonyl)-4-piperidinylcarboxamide]

Compound: Cc1ccc(S(=O)(=O)NC2CC3CCC(C2)N3CCCN(C(=O)OCc2ccccc2)c2ccc(C)c(Cl)c2)cc1 (stereo not drawn) [Compound 15c, 3-chloro-4-methylphenyl(3-(3-exo-(4-toluenesulfonamido)-8-azabicyclo[3.2.1]oct-8-yl)propyl)carbamic acid benzyl ester]
inhibition against CCR5 (class symbol in IC50 column) [2]: ++ (the compound at 300 nM has an inhibition against CCR5 of more thant 50% at 300 nM)

Compound: Cc1ccc(S(=O)(=O)NC2CC3CCC(C2)N3CCCN(C(=O)Nc2ccccc2)c2ccc(C)c(Cl)c2)cc1 (centres unmarked) [Compound 15d]
inhibition against CCR5 (class symbol in IC50 column) [2]: ++ (the compound at 300 nM has an inhibition against CCR5 of more thant 50% at 300 nM)

Compound: Cc1ccc(S(=O)(=O)NC2CC3CCC(C2)N3CCCN(c2ccc(C)c(Cl)c2)S(=O)(=O)c2ccc(C)cc2)cc1 (stereo not drawn) [Compound 15e, N-(3-chloro-4-methylphenyl)-4-methyl-N-(3-(3-exo-(4-tolylsulfonamido)-8-azabicyclo[3.2.1]oct-8-yl)propyl)phenylsulfonamide]
inhibition against CCR5 (class symbol in IC50 column) [2]: ++ (the compound at 300 nM has an inhibition against CCR5 of more thant 50% at 300 nM)

Compound: Maraviroc [reference compound]
IC50 ([3]; PHA-stimulated PBMC, HIV-1 Ba-L, p24): 0.35 nM
IC50 ([1]; Hela cells expressing human CD4, CCR5 and Ltr-lacZ, HIV-1 NL(AD8), 3 days): 1.5 nM
